Source: patent EP4806892A1, “CEREBLON E3 UBIQUITIN LIGASE INHIBITOR” (GAN & LEE PHARMACEUTICALS CO., LTD., priority 2023, dated 2025)

Experiments:
Type in all cases: cell-based
[1] = test system: IL-6; assay: LPS-induced IL-6 secretion by hPBMC (ELISA); conditions: Homo sapiens, 20 h compound then LPS 200 ng/mL for 5 h; for inhibition at […]: 2500nM, read-out: Inhibition Rate of IL-6 (2500nM)
Protocol: (§1) After thawing, cryopreserved hPBMC (FPB003F-C, Shanghai OriBiotech.) cells were resuspended in RPMI 1640 medium (30-2001, ATCC) containing 10% inactivated FBS (10099141C, Gibco) and cultured overnight at 37°C and 5% CO2. The next day, hPBMC cells were seeded in a 96-well cell culture plate at a density of 2 × 10^5 cells/well/100 µL (2 × 10^6 cells/mL), and 100 µL of compound in dimethyl sulfoxide solution (final concentration 0.0064-2500 nM) was added. […] The cell plate was placed in a 37°C, 5% CO2 incubator for 5 h, and then centrifuged at 1000 rpm for 15 min. 100 µL of cell supernatant was collected from each well for cytokine concentration testing, awhich was tested immediately or frozen at -80°C for testing.
The IL-6 concentration in the supernatant of hPBMC cells induced by LPS was determined using a Human IL-6 ELISA kit (D6050, RD).
IL-6 standard solutions of varying concentrations were prepared according to the product instructions, ranging from 0 to 300 pg/mL. 100 µL of Assay Diluent RD1W and 100 µL of standard solution or sample supernatant were added to a pre-coated ELISA plate and incubated at room temperature for 2 hours. After washing the plate four times with 1× wash buffer, then 200 µL of Human IL-6 Conjugate was added and incubated at room temperature for 2 hours. After washing the plate four times with 1× wash buffer, then 200 µL of Substrate Solution was added and incubated at room temperature for 20 minutes. Finally, 50 µL of Stop Solution was added to terminate the reaction. The absorbance at 450 nm and 570 nm were read using a microplate reader (SPARK m1000pro, TECAN). The standard curve was plottd by the signal value of each concentration of IL-6 standard solution, and the IL-6 concentration in each sample was determined according to the corresponding concentration of the signal value of each well on the standard curve. The inhibition rate of the compound on LPS-induced IL-6 in the hPBMC cell supernatant at different drug concentrations was calculated according to the IL-6 concentration. The inhibition rate data were plotted in GraphPad Prism 8.0 software to calculate the IC50 value. Inhibition Rate = [1−(OD(sample)−OD(blank))/(OD(control)−OD(blank))] × 100% [formula] Table 10: Inhibitory effect of Example compounds on LPS-induced IL-6 secretion by hPBMC

[2] = test system: TNFα; assay: LPS-induced TNFα secretion by PBMC (HTRF detection); conditions: Homo sapiens, hPBMC, 20 hours compound then LPS 200 ng/mL for 5 hours, read-out: IC50 (inhibition of LPS-induced TNFα)
Protocol: as §1, with “OriBiotech)” for “OriBiotech.)”, “(30-2001,ATCC)” for “(30-2001, ATCC)”, “hours,” for “h,”, “minutes.” for “min.”, “which” for “awhich”
The TNFα concentration in the supernatant of LPS-induced THP-1 cells was determined using the TNF […] detection kit (62[…], PerkinElmer).
TNFα standard solutions of varying concentrations were prepared according to the product instructions, ranging from 0 to 2500 pg/mL. Equal volumes of Eu Cryptate antibody (1×) and d2 antibody (1×) were used to prepare the antibody mixture. 16 µL of standard solution or sample supernatant and 4 µL of the antibody mixture were added to each well of a 384-well white plate. The mixture was centrifuged at 800 rpm for 1 minute and incubated at room temperature for 2 hours. The absorbance at 620 nm and […] was read using a microplate reader (SPARK m1000pro, TECAN). A standard curve was plotted using the signal values of each TNFα standard solution. The TNFα concentration in each sample was determined based on the corresponding concentration of the signal value on the standard curve. The inhibitory rate of the compound on LPS-induced TNFα expression in THP-1 cell supernatants at different drug concentrations was calculated based on the TNFα concentration. The inhibition rate data were plotted in GraphPad Prism 8.0 software, and the IC50 value was calculated. Inhibition Rate = [1−(OD(Sample)−OD(Blank))/(OD(Control)−OD(Blank))] × 100% [formula] Table 9: Degradation effect of example compounds on IRAK4 in PBMC cells

[3] = target: T1, IRAK4 (Homo sapiens, UniProt Q9NWZ3); assay: IRAK4 degradation in THP-1 cells (Western blot); conditions: 24 hours
T1 construct: The supernatant was carefully collected and analyzed for IRAK4 protein levels by immunoblotting; host or cells: THP-1
T1 sequence (Q9NWZ3 1-460): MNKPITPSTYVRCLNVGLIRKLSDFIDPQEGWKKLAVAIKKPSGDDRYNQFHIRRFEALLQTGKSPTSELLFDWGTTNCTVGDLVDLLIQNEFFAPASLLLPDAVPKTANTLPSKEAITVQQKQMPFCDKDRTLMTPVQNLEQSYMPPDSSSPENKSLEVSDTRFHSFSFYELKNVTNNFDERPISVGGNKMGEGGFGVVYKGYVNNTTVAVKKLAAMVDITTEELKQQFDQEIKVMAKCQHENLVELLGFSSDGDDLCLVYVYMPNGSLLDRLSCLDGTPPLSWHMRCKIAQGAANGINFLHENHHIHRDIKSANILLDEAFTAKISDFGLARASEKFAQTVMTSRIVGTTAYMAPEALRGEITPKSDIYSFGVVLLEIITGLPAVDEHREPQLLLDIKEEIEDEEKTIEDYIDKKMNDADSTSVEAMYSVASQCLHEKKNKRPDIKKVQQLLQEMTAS
Protocol: 2 mL of THP-1 cells were seeded into a 6-well cell culture plate at a density of 4 × 10^5 cells/well. After adding 1 µL of compound in dimethyl sulfoxide solution (final concentration 10-10,000 nM) and continuing to incubate at 37°C, 5% CO2 for 24 hours, cells were collected into 2 mL centrifuge tubes and centrifuged at 125 g at 4°C for 5 minutes. The cell pellet was washed once with 1 mL of pre-chilled 1× DPBS and resuspended and lysed in 50 µL of RIPA lysis buffer (P0013B, Beyotime) and 1× protease inhibitor cocktail (P1005, Beyotime). After incubation on ice for 20 minutes, the cells were centrifuged at 14,000 g at 4°C for 30 minutes. The supernatant was carefully collected and analyzed for IRAK4 protein levels by immunoblotting.
Western blotting: The total protein concentration in the collected cell lysate supernatant was determined using the BCA protein concentration assay kit (enhanced) (P0009, Beyotime). Based on the total protein concentration detected by BCA, the protein concentration was adjusted to 1 µg/µL using RIPA lysis buffer and 5× SDS-PAGE protein loading buffer (MB01015, GenScript). The protein was denatured in a 95°C water bath for 5 minutes. After denaturation, the condensed water on the centrifuge tube wall was collected by centrifugation and used as the loading sample. […] Electrophoresis was performed at 100 V for 20 minutes, then switched to 150 V for 40 minutes. After electrophoresis, the proteins in the SDS-PAGE gel were transferred to a PVDF membrane and transferred at a constant voltage of 100 V for 60 minutes. After transfer, the PVDF membrane corresponding to the IRAK4 protein and internal reference protein was cut and incubated in 1× QuickBlock blocking buffer (P0252, Beyotime) for 30 minutes at room temperature on a shaker. […] After incubation, the PVDF membrane was washed three times with 1× TBST buffer for 5 minutes each. […] The membrane was then washed again three times with 1× TBST buffer for 5 minutes each. Finally, the membrane was imaged using a dual-color infrared laser imaging system (Odyssey DLx, LI-COR). Protein maps were analyzed for grayscale values using Image Studio Lite software. The grayscale correction value for each sample was calculated using the formula: grayscale correction value = grayscale value of the target protein / grayscale value of the corresponding internal reference. The grayscale correction values of the compound group and the control group were then compared to calculate the degradation rate of the compound.

| Structure (SMILES) | inhibition at […] [1] | IC50 [2] | IRAK4 degradation (10nM) [3] | IRAK4 degradation (100nM) [3] | inhibition at 0.02 µM ([1]; 20nM, read-out: Inhibition Rate of IL-6 (20nM)) |
| --- | --- | --- | --- | --- | --- |
| O=C1CCN(c2ccc3c(c2)OCC[C@@H]2CN(C[C@H]4CC[C@H](OC5CCN(C(=O)[C@H]6CC[C@H](n7cc(NC(=O)c8cnn9ccc(N%10C[C@H]%11C[C@@H]%10CO%11)nc89)c(C(F)F)n7)CC6)CC5)CC4)CCN32)C(=O)N1 [IR-P-4] | 84% | 0.142 µM | B (50% > degradation rate ≥ 20%) | A (a degradation rate ≥ 50%) |  |
| O=C1CCN(c2ccc3c(c2)OCC[C@H]2CN(C[C@H]4CC[C@@H](OC5CCN(C(=O)[C@H]6CC[C@H](n7cc(NC(=O)c8cnn9ccc(N%10C[C@H]%11C[C@@H]%10CO%11)nc89)c(C(F)F)n7)CC6)CC5)CC4)CCN32)C(=O)N1 [IR-P-1] | 87% | 0.0786 µM | B (50% > degradation rate ≥ 20%) | B (50% > degradation rate ≥ 20%) |  |
| O=C1CCN(c2ccc3c(c2)OCC[C@@H]2CN(C[C@H]4CC[C@@H](OC5CCN(C(=O)[C@H]6CC[C@H](n7cc(NC(=O)c8cnn9ccc(N%10C[C@H]%11C[C@@H]%10CO%11)nc89)c(C(F)F)n7)CC6)CC5)CC4)CCN32)C(=O)N1 [IR-P-2] | 86% | 0.184 µM | B (50% > degradation rate ≥ 20%) | B (50% > degradation rate ≥ 20%) |  |
| O=C1CCN(c2ccc3c(c2)OCC[C@H]2CN(C[C@H]4CC[C@H](OC5CCN(C(=O)[C@H]6CC[C@H](n7cc(NC(=O)c8cnn9ccc(N%10C[C@H]%11C[C@@H]%10CO%11)nc89)c(C(F)F)n7)CC6)CC5)CC4)CCN32)C(=O)N1 [IR-P-3] | 89% | 0.0643 µM | A (a degradation rate ≥ 50%) | A (a degradation rate ≥ 50%) | 63% |
| O=C1CCN(c2ccc3c(c2)OC2(CC3)CN(CC3CCN(C(=O)[C@H]4CC[C@H](n5cc(NC(=O)c6cnn7ccc(N8C[C@H]9C[C@@H]8CO9)nc67)c(C(F)F)n5)CC4)CC3)C2)C(=O)N1 [IR-P-5] | 78% | 0.0696 µM | B (50% > degradation rate ≥ 20%) |  |  |
